pEC50: −log10 of the molar value.
Target: T1, KCNQ2/3 channels (Homo sapiens, UniProt O43525+O43526)
T1 construct: expressed in transfected cells
Assay: Fluorescence assay using a voltage sensitive dye (fluorimetry)
Assay type: cell-based
Conditions: CHO-K1 cells expressing KCNQ2/3; for Emax: CHO-K1, plateau effect relative to saturated retigabine (50 μM) = 100%, negative values = antagonistic, read-out: Fluorimetry % efficacy (retigabine = 100%); for pEC50: IC50 where % efficacy is negative, read-out: Fluorimetry EC50/IC50

T1 sequence (O43526 whole entry): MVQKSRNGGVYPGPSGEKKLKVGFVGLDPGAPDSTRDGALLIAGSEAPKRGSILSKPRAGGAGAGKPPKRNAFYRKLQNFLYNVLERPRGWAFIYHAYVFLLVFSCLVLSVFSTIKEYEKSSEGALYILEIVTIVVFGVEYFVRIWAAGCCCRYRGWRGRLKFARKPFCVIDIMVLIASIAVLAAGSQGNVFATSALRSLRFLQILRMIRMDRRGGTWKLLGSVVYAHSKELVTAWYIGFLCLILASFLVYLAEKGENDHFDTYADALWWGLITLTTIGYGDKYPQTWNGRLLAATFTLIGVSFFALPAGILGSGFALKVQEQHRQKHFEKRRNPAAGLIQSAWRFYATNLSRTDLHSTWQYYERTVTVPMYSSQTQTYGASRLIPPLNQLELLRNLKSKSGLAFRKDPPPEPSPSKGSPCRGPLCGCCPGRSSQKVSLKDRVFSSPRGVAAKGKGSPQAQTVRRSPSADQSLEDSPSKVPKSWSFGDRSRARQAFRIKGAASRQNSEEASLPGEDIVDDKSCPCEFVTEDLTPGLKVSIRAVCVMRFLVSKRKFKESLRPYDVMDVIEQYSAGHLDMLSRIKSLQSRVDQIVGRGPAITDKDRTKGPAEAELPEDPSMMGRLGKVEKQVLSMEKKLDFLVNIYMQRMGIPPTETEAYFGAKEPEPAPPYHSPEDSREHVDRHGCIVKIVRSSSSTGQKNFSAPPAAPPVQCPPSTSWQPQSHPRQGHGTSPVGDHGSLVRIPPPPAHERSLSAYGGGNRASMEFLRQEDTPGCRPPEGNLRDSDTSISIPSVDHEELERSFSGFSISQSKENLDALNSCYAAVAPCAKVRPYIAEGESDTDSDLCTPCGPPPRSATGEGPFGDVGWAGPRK
T1 sequence (O43525 whole entry): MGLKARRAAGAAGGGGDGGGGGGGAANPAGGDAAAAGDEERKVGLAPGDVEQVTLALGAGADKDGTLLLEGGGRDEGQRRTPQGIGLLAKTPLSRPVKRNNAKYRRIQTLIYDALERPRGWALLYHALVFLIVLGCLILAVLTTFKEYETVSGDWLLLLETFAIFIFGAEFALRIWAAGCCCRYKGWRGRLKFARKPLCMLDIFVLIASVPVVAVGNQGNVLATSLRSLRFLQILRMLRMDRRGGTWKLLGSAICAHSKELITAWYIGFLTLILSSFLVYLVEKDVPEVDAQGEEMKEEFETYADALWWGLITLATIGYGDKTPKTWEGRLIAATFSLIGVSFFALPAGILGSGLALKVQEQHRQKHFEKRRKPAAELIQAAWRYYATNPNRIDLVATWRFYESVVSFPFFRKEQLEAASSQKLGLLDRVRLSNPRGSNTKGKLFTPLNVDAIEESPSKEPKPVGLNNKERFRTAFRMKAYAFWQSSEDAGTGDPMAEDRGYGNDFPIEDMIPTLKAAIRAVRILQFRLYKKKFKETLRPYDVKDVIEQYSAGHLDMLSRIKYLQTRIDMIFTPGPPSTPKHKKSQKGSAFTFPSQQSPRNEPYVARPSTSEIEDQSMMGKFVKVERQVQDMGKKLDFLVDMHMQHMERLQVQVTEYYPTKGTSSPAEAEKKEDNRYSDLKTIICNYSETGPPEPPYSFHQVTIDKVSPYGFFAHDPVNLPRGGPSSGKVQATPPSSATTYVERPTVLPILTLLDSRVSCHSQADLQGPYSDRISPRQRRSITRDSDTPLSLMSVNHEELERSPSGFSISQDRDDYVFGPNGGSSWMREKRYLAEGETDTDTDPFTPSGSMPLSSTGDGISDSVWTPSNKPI

SMILES | Emax [%] | pEC50
CCSc1nc(N(C)c2cccnc2)cc(C)c1C(=O)NCc1cccc(F)c1 [Example 171, 2-Ethylsulfanyl-N-[(3-fluorophenyl)-methyl]-4-methyl-6-(methyl-pyridin-3-yl-amino)-pyridine-3-carboxylic acid amide] | 62 | 5.71
CCCCOc1nc(N2CCOCC2)cc(C)c1C(=O)NCc1cccc(F)c1 [Example 110, 2-Butoxy-N-[(3-fluorophenyl)-methyl]-4-methyl-6-morpholin-4-yl-pyridine-3-carboxylic acid amide] | 163 | 7.15
CCSc1nc(N2CCOCC2=O)cc(C)c1C(=O)NCc1cccc(F)c1 [Example 312, 2-Ethylsulfanyl-N-[(3-fluorophenyl)-methyl]-4-methyl-6-(3-oxo-morpholin-4-yl)-pyridine-3-carboxylic acid amide] | 135 | 5.17
CCSc1nc(N(C)CC2CCCCO2)cc(C)c1C(=O)NCc1cccc(F)c1 (stereo not shown) [Example 5, 2-Ethylsulfanyl-N-[(3-fluorophenyl)-methyl]-4-methyl-6-[methyl-(tetrahydro-pyran-2-yl-methyl)-amino]-pyridine-3-carboxylic acid amide] | 111 | 6.57
CCSc1nc(N2Cc3ccccc3C2)cc(C)c1C(=O)NCc1cccc(F)c1 [Example 303, 6-(2,3-Dihydro-1H-isoindol-2-yl)-2-ethylsulfanyl-N-[(3-fluorophenyl)-methyl]-4-methyl-pyridine-3-carboxylic acid amide] | 54 | 5.94
CCSc1nc(N2CCOCC2)cc(C)c1C(=O)NCCCC(C)(F)F [Example 308, N-(4,4-Difluoro-pentyl)-2-ethylsulfanyl-4-methyl-6-morpholin-4-yl-pyridine-3-carboxylic acid amide] | 249 | 6.40
CCSc1nc(N(C)C(=O)c2ccc(F)cc2)cc(C)c1C(=O)NCc1cccc(F)c1 [Example 120, 2-Ethylsulfanyl-6-[(4-fluoro-benzoyl)-methyl-amino]-N-[(3-fluorophenyl)-methyl]-4-methyl-pyridine-3-carboxylic acid amide] | 10 | 
CCSc1nc(N(C)C(C)=O)cc(C)c1C(=O)NCc1cccc(F)c1 [Example 123, 6-(Acetyl-methyl-amino)-2-ethylsulfanyl-N-[(3-fluorophenyl)-methyl]-4-methyl-pyridine-3-carboxylic acid amide] | 67 | 
CCSc1nc(N(CCCOC)Cc2ccc(F)cc2)cc(C)c1C(=O)NCc1cccc(F)c1 [Example 338, 2-Ethylsulfanyl-N-[(3-fluorophenyl)-methyl]-6-[(4-fluorophenyl)-methyl-(3-methoxy-propyl)-amino]-4-methyl-pyridine-3-carboxylic acid amide] | 73 | 6.49
CCSc1nc(N2CCC2)cc(C)c1C(=O)NCc1cccc(F)c1 [Example 299, 6-(Azetidin-1-yl)-2-ethylsulfanyl-N-[(3-fluorophenyl)-methyl]-4-methyl-pyridine-3-carboxylic acid amide] | 104 | 6.04
CCSc1nc(N2CCOCC2)cc(C)c1C(=O)NCc1ccccc1C(F)(F)F [Example 51, 2-Ethylsulfanyl-4-methyl-6-morpholin-4-yl-N-[[2-(trifluoromethyl)-phenyl]methyl]-pyridine-3-carboxylic acid amide] | -84 | 6.27
CCSc1nc(N(C)CC2CCCO2)cc(C)c1C(=O)NCc1cccc(F)c1 (stereo not shown) [Example 294, 2-Ethylsulfanyl-N-[(3-fluorophenyl)-methyl]-4-methyl-6-[methyl-(tetrahydro-furan-2-yl-methyl)-amino]-pyridine-3-carboxylic acid amide] | 129 | 5.99
CCSc1nc(N2CCO[C@@H](COC)C2)cc(C)c1C(=O)NCc1ccc(Cl)cc1 [Example 254, N-[(4-Chlorophenyl)-methyl]-2-ethylsulfanyl-6-[(2R)-2-(methoxymethyl)-morpholin-4-yl]-4-methyl-pyridine-3-carboxylic acid amide] | 113 | 6.03
CCSc1nc(N(C)C2CCOC2)cc(C)c1C(=O)NCc1cccc(F)c1 (stereo not shown) [Example 301, 2-Ethylsulfanyl-N-[(3-fluorophenyl)-methyl]-4-methyl-6-(methyl-tetrahydro-furan-3-yl-amino)-pyridine-3-carboxylic acid amide] | 132 | 6.12
CCSc1nc(N2C(C)COCC2C)cc(C)c1C(=O)NCc1cccc(F)c1 (stereo not shown) [Example 262, 6-(3,5-Dimethyl-morpholin-4-yl)-2-ethylsulfanyl-N-[(3-fluorophenyl)-methyl]-4-methyl-pyridine-3-carboxylic acid amide] | 182 | 6.43
CCSc1nc(N2CCOCC2)cc(C)c1C(=O)NCc1cc(C(F)(F)F)ccc1F [Example 95, 2-Ethylsulfanyl-N-[[2-fluoro-5-(trifluoromethyl)-phenyl]-methyl]-4-methyl-6-morpholin-4-yl-pyridine-3-carboxylic acid amide] | 62 | 7.25
CCSc1nc(N(C)Cc2ccc(F)cc2)cc(C)c1C(=O)NCc1cccc(F)c1 [Example 52, 2-Ethylsulfanyl-N-[(3-fluorophenyl)-methyl]-6-[(4-fluorophenyl)-methyl-methyl-amino]-4-methyl-pyridine-3-carboxylic acid amide] | 122 | 6.63
Cc1cc(N2CCOCC2)nc(C2CC2)c1C(=O)NCCC(O)C(C)(C)C (racemic) [Example X1, 2-Cyclopropyl-N-(3-hydroxy-4,4-dimethyl-pentyl)-4-methyl-6-morpholin-4-yl-pyridine-3-carboxylic acid amide] |  | 6.28
CCSc1nc(N2CCN(C)C(=O)C2)cc(C)c1C(=O)NCc1cccc(F)c1 [Example 150, 2-Ethylsulfanyl-N-[(3-fluorophenyl)-methyl]-4-methyl-6-(4-methyl-3-oxo-piperazin-1-yl)-pyridine-3-carboxylic acid amide] | 98 | 5.02
CCSc1nc(N2CCOC[C@H]2COC)cc(C)c1C(=O)NCc1cccc(F)c1 [Example 179, 2-Ethylsulfanyl-N-[(3-fluorophenyl)-methyl]-6-[(3R)-3-(methoxymethyl)-morpholin-4-yl]-4-methyl-pyridine-3-carboxylic acid amide] | 190 | 6.61
Cc1cc(N2CCOC[C@H]2C)nc(C2CC2)c1C(=O)NCc1ccc(Cl)cc1 [Example 282, N-[(4-Chlorophenyl)-methyl]-2-cyclopropyl-4-methyl-6-[(3R)-3-methyl-morpholin-4-yl]-pyridine-3-carboxylic acid amide] | 182 | 7.40

More lines, now with the values ahead:

Emax [%] | pEC50 | SMILES
203 | 6.50 | CCSc1nc(N2CCOCC2)cc(C)c1C(=O)NCCCc1ccc(F)cc1 [Example 108, 2-Ethylsulfanyl-N-[3-(4-fluorophenyl)-propyl]-4-methyl-6-morpholin-4-yl-pyridine-3-carboxylic acid amide]
127 | 6.78 | CSc1nc(N2CCOCC2)cc(C)c1C(=O)NCc1ccc(C(F)(F)F)cc1 [Example 157, 4-Methyl-2-methylsulfanyl-6-morpholin-4-yl-N-[[4-(trifluoromethyl)-phenyl]-methyl]-pyridine-3-carboxylic acid amide]
22 |  | CC(=O)N(C)c1nc(N2CCOCC2)cc(C)c1C(=O)NCc1cccc(F)c1 [Example 341, 2-(Acetyl-methyl-amino)-N-[(3-fluorophenyl)-methyl]-4-methyl-6-morpholin-4-yl-pyridine-3-carboxylic acid amide]
164 | 6.99 | COc1nc(N2CCOC[C@H]2C)cc(C)c1C(=O)NCc1ccc(C(F)(F)F)cc1 [Example 238, 2-Methoxy-4-methyl-6-[(3R)-3-methyl-morpholin-4-yl]-N-[[4-(trifluoromethyl)-phenyl]-methyl]pyridine-3-carboxylic acid amide]
102 | 6.84 | Cc1cc(N2CCOCC2)nc(OCC2CC2)c1C(=O)NCc1ccc(F)cc1 [Example 276, 2-(Cyclopropyl-methoxy)-N-[(4-fluorophenyl)-methyl]-4-methyl-6-morpholin-4-yl-pyridine-3-carboxylic acid amide]
135 | 7.21 | CCSc1nc(N2CCOCC2)cc(C)c1C(=O)NCc1ccc(SC(F)(F)F)cc1 [Example 75, 2-Ethylsulfanyl-4-methyl-6-morpholin-4-yl-N-[[4-(trifluoromethylsulfanyl)-phenyl]-methyl]-pyridine-3-carboxylic acid amide]
173 | 5.96 | CCSc1nc(N2CCCOCC2)cc(C)c1C(=O)NCc1cccc(F)c1 [Example 96, 2-Ethylsulfanyl-N-[(3-fluorophenyl)-methyl]-4-methyl-6-([1,4]oxazepan-4-yl)-pyridine-3-carboxylic acid amide]
96 | 7.11 | Cc1cc(N2CCOCC2)nc(OCC(F)F)c1C(=O)NCc1ccc(F)cc1 [Example 272, 2-(2,2-Difluoro-ethoxy)-N-[(4-fluorophenyl)-methyl]-4-methyl-6-morpholin-4-yl-pyridine-3-carboxylic acid amide]
138 | 6.36 | CCSc1nc(N2CCOCC2)cc(C)c1C(=O)NCc1ccc(OC(F)F)cc1 [Example 288, N-[[4-(Difluoro-methoxy)-phenyl]-methyl]-2-ethylsulfanyl-4-methyl-6-morpholin-4-yl-pyridine-3-carboxylic acid amide]
-61 | 6.97 | CCSc1nc(N2CCOCC2)cc(C)c1C(=O)NCc1ccc(F)cc1-c1ccc(F)cc1 [Example 85, 2-Ethylsulfanyl-N-[[4-fluoro-2-(4-fluorophenyl)-phenyl]-methyl]-4-methyl-6-morpholin-4-yl-pyridine-3-carboxylic acid amide]
